Data on three molecules can be found in patent US4698352A, “4-oxo-1,4-dihydronicotinic acid derivatives, salts thereof, and antibacterial agents containing the same” (Toyama Chemical Co., Ltd., priority 1982, dated 1987).

Each structure is given as a SMILES string. Values after ≈ are worked out from the molar mass of the structure shown. Where two headings read alike, the source gives them in different places.

What all share (experiment): Antibacterial activity (MIC), agar dilution
Common to all, as to type: cell-based
Background: In agar dilution, organisms are placed on agar that contains the substance at set levels.

One assay has as its system Ps. aeruginosa GN3379*. The following applies: Pseudomonas aeruginosa, 20 h; Ps. aeruginosa GN3379, penicillinase-producing; 10^6 cells per ml; read-out: MIC. From the text: (§1) The amount of bacteria inoculated was 10^4 cells per plate (10^6 cells per ml).
(§2) * Penicillinase-producing bacteria

In another assay the test system is St. aureus F-137*. As to conditions: Staphylococcus aureus, 20 h, St. aureus F-137, penicillinase-producing; 10^6 cells per ml; read-out: MIC.
Text: as §1, §2

Another assay has as its system Kl. pneumoniae Y-4*. As to conditions: Klebsiella pneumoniae, 20 h, Kl. pneumoniae Y-4, penicillinase-producing; 10^6 cells per ml; read-out: MIC.
Text: as §1, §2

For the next assay, the system named is E. coli TK-3*. The following applies: Escherichia coli, 20 h, E. coli TK-3, penicillinase-producing; 10^6 cells per ml; read-out: MIC.
Text: as §1, §2

The test system of the next assay is Ps. aeruginosa S-68. The following applies: Pseudomonas aeruginosa.
Text: as §1

The subject of another assay is Kl. pneumoniae Y-41. As to conditions: Klebsiella pneumoniae, Y41, 10^6 cells per ml, 37° C., 20 hours, read-out: MIC.
Text: as §1

The test system of the next assay is Pro. mirabilis T-111. As to conditions: Proteus mirabilis, 37° C.
Text: as §1

A further assay concerns E. coli NIHJ JC-2. As to conditions: Escherichia coli, NIHJJC2, 20 h.
Text: as §1

The subject of another assay is E. coli TK-111. The following applies: Escherichia coli, TK111, 20 h, E. coli TK-111; 10^6 cells per ml; 37° C., 20 hours; read-out: MIC.
Text: as §1

The next assay has as its system St. aureus FDA209P. As to conditions: Staphylococcus aureus, FDA209P, 20 h, St. aureus FDA209P; 10^6 cells per ml; 37° C., 20 hours; read-out: MIC.
Text: as §1

A further assay deals with Ent. cloacae IID977. The following applies: Enterobacter cloacae, IID977, 20 h, Ent. cloacae IID977; 10^6 cells per ml; 37° C., 20 hours; read-out: MIC.
Text: as §1

The test system of a further assay is Kl. pneumoniae Y-50. As to conditions: Klebsiella pneumoniae, Y50, 20 h, 10^6 cells per ml, 37° C., read-out: MIC.
Text: as §1

Another assay has as its system Pro. vulgaris GN3027. The following applies: Proteus vulgaris, GN3027, 20 h, Pro. vulgaris GN3027; 10^6 cells per ml; 37° C., 20 hours; read-out: MIC.
Text: as §1

A further assay concerns Ps. aeruginosa IFO3445. As to conditions: Pseudomonas aeruginosa; Ps. aeruginosa IFO3445; 10^6 cells per ml; 37° C., 20 hours; read-out: MIC.
Text: as §1

A further assay has as its system Aci. antitratus A-6. The following applies: 20 h, Aci. antitratus A-6; 10^6 cells per ml; 37° C., 20 hours; read-out: MIC.
Text: as §1

The subject of the next assay is Pro. morganii T-216. As to conditions: Morganella morganii, 37° C.
Text: as §1

A further assay relates to Ps. aeruginosa GN918**. The following applies: Ps. aeruginosa GN918, cephalospolinase-producing, 10^6 cells per ml.
Text: as §1
(§3) ** Cephalospolinase-producing bacteria

In a further assay the test system is E. coli GN5482**. The following applies: Escherichia coli, 20 h; E. coli GN5482, cephalospolinase-producing; 10^6 cells per ml; read-out: MIC.
Text: as §1, §3

The next assay deals with Pro. vulgaris GN76**. As to conditions: Proteus vulgaris, 20 h; Pro. vulgaris GN76, cephalospolinase-producing; 10^6 cells per ml; read-out: MIC.
Text: as §1, §3

Setting [1] is: S68, Ps. aeruginosa S-68, 10^6 cells per ml, 37° C., 20 hours, read-out: MIC.
The mark [2] stands for this setting: E. coli NIHJ JC-2, 10^6 cells per ml, 37° C., 20 hours, read-out: MIC.
Where [3] appears, read: Pseudomonas aeruginosa, 20 h, read-out: MIC.

As a reminder, the MIC is the smallest concentration in the dilution series that meets the test's criterion for growth inhibition. Consider `O=C(O)c1cn(-c2ccc(O)cc2F)c(C2CC=CCC2)cc1=O` (stereo not drawn), for which the MIC is 12.5 µg/mL (≈ 38 µM) in the assay with Ps. aeruginosa GN3379*; 0.39 µg/mL (≈ 1.18 µM) in the assay with St. aureus F-137*; 6.25 µg/mL (≈ 19 µM) in the assay on Kl. pneumoniae Y-4*; 3.13 µg/mL (≈ 9.5 µM) with E. coli TK-3*; 12.5 µg/mL (≈ 38 µM) with Ps. aeruginosa S-68 (setting [1]); 6.25 µg/mL (≈ 19 µM) with Kl. pneumoniae Y-41. Further, the MIC with Pro. mirabilis T-111 (T111, 10^6 cells per ml, 20 hours, read-out: MIC) was 12.5 µg/mL (≈ 38 µM); in the assay on E. coli NIHJ JC-2 (setting [2]), 1.56 µg/mL (≈ 4.74 µM); in the assay on E. coli TK-111, 0.39 µg/mL (≈ 1.18 µM); in the assay with St. aureus FDA209P, 0.39 µg/mL (≈ 1.18 µM); with Ent. cloacae IID977, 3.13 µg/mL (≈ 9.5 µM); with Kl. pneumoniae Y-50, 0.78 µg/mL (≈ 2.37 µM). The MIC with Pro. vulgaris GN3027 is 0.1 µg/mL (≈ 0.304 µM); with Ps. aeruginosa IFO3445 it was 12.5 µg/mL (≈ 38 µM); in the assay with Aci. antitratus A-6, 3.13 µg/mL (≈ 9.5 µM); in the assay with Pro. morganii T-216 (T216, 10^6 cells per ml, 20 hours, read-out: MIC) it was 3.13 µg/mL (≈ 9.5 µM); in the assay with Ps. aeruginosa GN918** (setting [3]) it was 1.56 µg/mL (≈ 4.74 µM); in the assay on E. coli GN5482** it was 0.39 µg/mL (≈ 1.18 µM). In addition, the MIC in the assay on Pro. vulgaris GN76** came out at 0.78 µg/mL (≈ 2.37 µM).
`Cc1cc(O)ccc1-n1cc(C(=O)O)c(=O)cc1C1CCCCC1` [drawing 12]: the MIC in the assay on Ps. aeruginosa GN3379* is above 100 µg/mL; in the assay with St. aureus F-137* it was 0.78 µg/mL (≈ 2.38 µM); with Kl. pneumoniae Y-4*, 12.5 µg/mL (≈ 38.2 µM); in the assay on E. coli TK-3*, 3.13 µg/mL (≈ 9.56 µM); in the assay on Ps. aeruginosa S-68 (setting [1]), 50 µg/mL (≈ 153 µM); in the assay on Kl. pneumoniae Y-41 it was 6.25 µg/mL (≈ 19.1 µM). The MIC came out at 12.5 µg/mL (≈ 38.2 µM) against Pro. mirabilis T-111 (T111, 20 h, 10^6 cells per ml); 1.56 µg/mL (≈ 4.77 µM) in the assay with E. coli NIHJ JC-2; 0.78 µg/mL (≈ 2.38 µM) in the assay with E. coli TK-111; 0.78 µg/mL (≈ 2.38 µM) in the assay with St. aureus FDA209P; 3.13 µg/mL (≈ 9.56 µM) with Ent. cloacae IID977; 1.56 µg/mL (≈ 4.77 µM) with Kl. pneumoniae Y-50. Also, the MIC in the assay on Pro. vulgaris GN3027 turned out to be 0.2 µg/mL (≈ 0.611 µM); in the assay with Ps. aeruginosa IFO3445, 50 µg/mL (≈ 153 µM); in the assay on Aci. antitratus A-6, 0.78 µg/mL (≈ 2.38 µM); with Pro. morganii T-216 (T216, 20 h, 10^6 cells per ml), 6.25 µg/mL (≈ 19.1 µM); in the assay on Ps. aeruginosa GN918** (setting [3]), 3.13 µg/mL (≈ 9.56 µM); in the assay on E. coli GN5482** it was 0.1 µg/mL (≈ 0.305 µM). Further, the MIC in the assay with Pro. vulgaris GN76** came to 3.13 µg/mL (≈ 9.56 µM).
Turning to `CC(=O)Oc1ccc(-n2cc(C(=O)OCCN(C)C)c(=O)cc2-c2ccc(N(C)C)cc2)cc1` [drawing 37], the MIC in the assay with Ps. aeruginosa GN3379* is 12.5 µg/mL (≈ 27 µM); in the assay with St. aureus F-137*, 0.39 µg/mL (≈ 0.841 µM); in the assay with Kl. pneumoniae Y-4* it was 6.25 µg/mL (≈ 13.5 µM); with E. coli TK-3*, 1.56 µg/mL (≈ 3.37 µM); against Ps. aeruginosa S-68 (S68, 20 h), 6.25 µg/mL (≈ 13.5 µM); in the assay on Kl. pneumoniae Y-41, 3.13 µg/mL (≈ 6.75 µM). Moreover, the MIC came out at 6.25 µg/mL (≈ 13.5 µM) against Pro. mirabilis T-111 (T111, 20 h, 10^6 cells per ml); 0.39 µg/mL (≈ 0.841 µM) with E. coli NIHJ JC-2 (setting [2]); 0.2 µg/mL (≈ 0.431 µM) in the assay with E. coli TK-111; 0.39 µg/mL (≈ 0.841 µM) in the assay on St. aureus FDA209P; 1.56 µg/mL (≈ 3.37 µM) in the assay with Ent. cloacae IID977; 0.78 µg/mL (≈ 1.68 µM) in the assay on Kl. pneumoniae Y-50. Further, the MIC was 0.39 µg/mL (≈ 0.841 µM) in the assay on Pro. vulgaris GN3027; 12.5 µg/mL (≈ 27 µM) in the assay with Ps. aeruginosa IFO3445; 0.39 µg/mL (≈ 0.841 µM) with Aci. antitratus A-6; 3.13 µg/mL (≈ 6.75 µM) with Pro. morganii T-216 (T216, 20 h, 10^6 cells per ml); 3.13 µg/mL (≈ 6.75 µM) against Ps. aeruginosa GN918**; at most 0.05 µg/mL in the assay with E. coli GN5482**. Also, the MIC in the assay on Pro. vulgaris GN76** was found to be 1.56 µg/mL (≈ 3.37 µM).
